Data set [1] in a line: Pharmacokinetics of β-Gal formulations in C57BL/6 mice (Example 4). To be noted: i.v. It is filed as in vivo. From the text:
FIG. 55 depicts time-dependent enzymatic activity of β-Gal in plasma delivered systemically in either saline (β-GalSaline) or extracted PFOc (β-GalExt. PFOc). Data shown as average±s.d. of n=5 technical replicates. Statistical significance determined using Student's t-test and represented as n.s.=not significant, * p<0.05.
To test whether PD-7 coating and PFOc dispersion influences the pharmacokinetic properties of formulated proteins, f-Gal formulations were intravenously administered to C57BL/6 mice and monitored time dependent serum bioavailability (FIG. 55). This experiment utilized a fluorescent conversion substrate to monitor the amount of functional protein in serum, thereby investigating changes to both bioavailability and bioactivity. Due to the large solution volumes administered (150 μL, ~15% of mouse blood volume), PFOc dispersed proteins were extracted into sterile saline before injection to avoid hyponatremia. Future applications in larger mammals would allow direct injection of the fluorous dispersion, without pre-extraction, due to the increased blood volumes and bio-inert nature of most perfluorocarbon solvents. […] However, variance in the data yielded statistical significance only at the t=0 hr and t=3 hr time points.

The subject of another data set is urease. The data set can be described thus: Circular dichroism with PFNA, urease. From the text: (§1) FIGS. 14A-14L depict circular dichroism spectra of Hb (FIG. 14A), GFP (FIG. 14B), BSA (FIG. 14C), β-Gal (FIG. 14D), rabbit serum IgG (FIG. 14E), transferrin (FIG. 14F), and urease (FIG. 14G) in the absence (black line) or presence (dashed lines) of PFNA. Increasing dash sequence indicated higher concentration of PFNA. FIG. 14H: Change in molar ellipticity at 216 nm (Δθ216) of PFNA-treated proteins, relative to native controls, as a function of increasing ligand concentration. FIG. 14I: Percentage change in secondary structural motifs of Hb, β-Gal and IgG between the native protein and 1 mM PFNA treated samples. β-sheet structures were further differentiated into parallel and antiparallel conformations. Hb, β-Gal and IgG were prioritized for analysis based on their significant spectral shift in the presence of 1 mM PFNA. FIGS. 14J-14L: Sensograms for BSA (FIG. 14J), β-gal (FIG. 14K), and IgG (FIG. 14L) showing relative response (R.U.) at 10, 25, 50, 75, and 100 μM.
(§2) To explore PFNA-mediated changes in protein structure, dose-response circular dichroism (CD) studies were performed (FIG. 14A-14G). […] Remarkably, these structural changes endured even at sub-stoichiometric PFNA:protein ratios (see 0.001 mM PFNA in […]; protein concentration was constant at 0.01 mM).
For orientation: CD spectra are sensitive to the conformation of chiral molecules.

The test system of the next data set is β-gal. The data set can be described thus: Circular dichroism with PFNA, β-gal. To be noted: 0.001-1 mM PFNA.
Excerpt: as §1, §2

Another data set concerns IgG. The data set can be described thus: Surface plasmon resonance, IgG. It is filed as binding, rabbit. To be noted: after reference correction.
Excerpt: as §1
To test this assertion, PFNA binding to three exemplary proteins, BSA, β-Gal and IgG, was studied via isothermal titration calorimetry (ITC) and surface plasmon resonance (SPR) techniques. […] SPR analysis yielded similar results, with sensorgrams (FIGS. 14J-14L) that diverged from a simple 1:1 ligand-protein model. […]
A general note: In SPR one partner is held on a chip, and binding of the other changes the refractive index at the surface.

The subject of the next data set is A549 cells. In words: Protein uptake in A549 cells, GFP. It is filed as cell-based, human. To be noted: PFNA, 24-hour exposure. As for the experimental part:
FIGS. 17A-17B depict the uptake of GFP in human lung A549 cells after 2 and 24 hours of incubation in the absence/presence of PFNA. Results are shown in relative fluorescence units (RFU).
Multiplexed in vitro assays were employed to probe the influence of PFNA interactions on protein uptake and transport in cells. A549 and PC9 human lung cells were prioritized for these assays given that pulmonary tissue is a primary site of perfluoroalkyl bioaccumulation in humans (Reference: 63). Before initiating experiments, cellular toxicity assays established a maximum tolerated dose of PFNA to avoid confounding protein transport experiments with substantive cell death. Protein uptake was then studied using green fluorescent protein (GFP) and bovine serum albumin (BSACy5) as model biologics that employ non-specific pinocytic mechanisms for cellular entry.

A further data set concerns HepG2 cells. The data set can be described thus: HepG2 MTT viability assay (Example 2). It is filed as cell-based, human. To be noted: Homo sapiens, HepG2, 37 °C overnight. As for the experimental part: FIG. 28 depicts a viability assay for HepG2 cells treated with two first generation compounds and two second generation compounds.
Next, viability assays were performed by seeding HepG2 (liver cancer cell line) onto 96 well plates and allowing the cells to adhere overnight. DMEM cell culture media containing various concentrations of each FTag compound were then added, and the plates were incubated at 37 °C overnight. The supernatant was then removed and MTT viability dyes were added to each well and allowed to convert for 2 hours. Dye absorbance for each condition was then compared to positive (20% DMSO) and negative (blank media) controls to calculate % viability (FIG. 28).

The target of a further data set is BSA (Bos taurus, UniProt P02769). In words: 1H and 19F NMR of dispersant:BSA complex. It is filed as binding, bovine. The procedure: FIG. 43 depicts a superimposed ^1H NMR spectra of PD-7 (60 mM) and PD-7:BSA (1000:1 molar ratio) complex.
FIG. 44 depicts a superimposed ^1H NMR spectra of PD-2 (60 mM) and PD-2:BSA (1000:1 molar ratio) complex.
FIG. 45 depicts the change in ^1H (—COOH) and ^19F (—CF3) NMR chemical shift (Δδ) for PD-2 (grey) and PD-7 (black) following coordination with the BSA protein.
1H NMR and 19F NMR spectroscopy were employed to examine the biophysical interactions between BSA and PD-7 in the fluorous solvent. 60 mM PFNA solution in PFOc was aliquoted into lyophilized BSA stocks to achieve 1000:1 PFNA/BSA molar ratio then transferred to thin wall precision tube with Norell Coaxial inserts containing D2O as locking solvent. NMR spectra were collected on a Bruker NEO-400, equipped with a double resonance broadband observe iProbe (capable of automatic tuning and matching) for 1H and 19F nuclei observation. […] This is a 7-fold change in chemical shift relative to PD-7:BSA (FIG. 45).

Where [2] appears, read: presence of BSA, 1000:1 molar ratio, in PFOc.

Data on two compounds can be found in US20260365692A1, “COMPOSITIONS COMPRISING PROTEINS DISSOLVED IN FLUORINATED SOLVENTS, AND METHODS OF MAKING AND USING THE SAME” (priority 2022, published 2026).

BSA, sequence (P02769 25-607): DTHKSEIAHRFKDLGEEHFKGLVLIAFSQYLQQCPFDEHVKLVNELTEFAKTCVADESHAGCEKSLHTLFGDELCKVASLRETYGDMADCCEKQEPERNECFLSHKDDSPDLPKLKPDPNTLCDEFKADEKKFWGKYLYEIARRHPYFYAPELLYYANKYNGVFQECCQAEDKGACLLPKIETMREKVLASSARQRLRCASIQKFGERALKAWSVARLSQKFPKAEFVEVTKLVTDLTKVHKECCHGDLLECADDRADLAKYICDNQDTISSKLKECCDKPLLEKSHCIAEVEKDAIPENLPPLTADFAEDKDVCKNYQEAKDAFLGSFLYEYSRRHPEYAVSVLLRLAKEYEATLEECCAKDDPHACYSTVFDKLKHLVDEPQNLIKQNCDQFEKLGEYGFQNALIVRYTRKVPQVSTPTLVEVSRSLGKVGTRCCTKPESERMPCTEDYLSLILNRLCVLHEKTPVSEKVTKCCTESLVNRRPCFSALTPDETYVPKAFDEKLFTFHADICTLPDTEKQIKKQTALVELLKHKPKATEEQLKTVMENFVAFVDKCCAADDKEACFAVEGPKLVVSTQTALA

For the compound “β-Gal: β-Galactosidase (β-Gal), dissolved in PBS/saline or dispersed in PFOc”, the “serum half-life t1/2” value was determined as 7.2 min in data set [1] (native β-Gal administered in saline) and 30 min in data set [1] (β-Gal from PFOc formulations, extracted into saline).
For orientation: IC50 means the concentration that gives 50% inhibition. Read a low IC50 as higher potency. Regarding `O=C(O)C(F)(F)C(F)(F)C(F)(F)C(F)(F)C(F)(F)C(F)(F)C(F)(F)C(F)(F)F` [Compound 7, perfluoronanonic acid], the “CD structural profile, urease” value in the data set on urease is on record as “remained largely unchanged”. For the same compound, in the data set on β-gal, the “CD structural change, β-gal” value is given as “marked increase in β-sheet content”. In the data set with IgG, the SPR response entry is “negative responses”. Moreover, the “uptake of GFP” value in the data set on A549 cells is given as “nominal increase in uptake”. In the data set with HepG2 cells, this compound gave an IC50 of 540 µM. Moreover, at BSA (1H —COOH, PD-2 vs PD-7), the “change in chemical shift relative to PD-7:BSA” value was found to be 7 fold. Also, at BSA (setting [2]), the “change in chemical shift of CF3 (Δδ, 19F NMR)” value is reported as 0.006 ppm and the “downfield shift of —COOH hydrogen (1H NMR)” value is reported as 0.56 ppm.
